target: Human FXIIa (Homo sapiens (Human), UniProt P00748); assay: Factor XIIa (FXIIa) inhibitory activity, chromogenic substrate (Pefachrome XIIa) cleavage; format: biochemical; conditions: 10 min pre-incubation, Pefachrome XIIa 400 μM
Experimental: Factor XIIa (FXIIa) Inhibitory Activity:
In a 96-well clear bottom plate, 80 μl of assay buffer was added to each well. Assay buffer consists of 0.5× Hank's Balanced Salt Solution (Invitrogen), buffered with 25 mM HEPES pH 7.4 (Invitrogen) and 0.5× Tris-buffered saline with Tween-20 0.05% (Santa Cruz Biotechnology). Test compounds were first dissolved in DMSO (Sigma) and then 4 μl were added to test wells containing assay buffer. Serial dilutions using an automated multi-channel pipette were used to generate a concentration range of approximately 1-100 μM. Human FXIIa (Enzyme Research Labs) was diluted in assay buffer to a final concentration of 12.5 nM. 80 μl of this enzyme solution was added to the assay wells. The enzyme/compound mixtures were incubated for 10 minutes at room temperature. Chromogenic substrate (Pefachrome XIIa; Enzyme Research Labs) was added to assay wells at a final concentration of 400 μM. The assay plate was spun for 1 minute at 1500 g and then read at 37° C. in a SpectraMax M2 plate reader (λ=405 nm). Activity was quantified as the rate of change in absorbance, which corresponds to the rate of substrate cleavage. IC50 values were determined as the concentration of inhibitor that produced 50% of the rate of change of control wells without any inhibitor. For compounds with activity <1 μM, the assay was repeated with a lower concentration range, typically from 10-1000 nM.

Human FXIIa, sequence (P00748 373-615): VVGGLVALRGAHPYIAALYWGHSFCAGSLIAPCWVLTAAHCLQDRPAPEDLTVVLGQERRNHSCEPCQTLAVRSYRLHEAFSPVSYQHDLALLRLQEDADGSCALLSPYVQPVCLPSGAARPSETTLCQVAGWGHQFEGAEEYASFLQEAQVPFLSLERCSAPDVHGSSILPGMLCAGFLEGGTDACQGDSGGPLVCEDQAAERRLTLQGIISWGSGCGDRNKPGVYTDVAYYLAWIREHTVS
Human FXIIa, sequence (P00748 20-372 partner): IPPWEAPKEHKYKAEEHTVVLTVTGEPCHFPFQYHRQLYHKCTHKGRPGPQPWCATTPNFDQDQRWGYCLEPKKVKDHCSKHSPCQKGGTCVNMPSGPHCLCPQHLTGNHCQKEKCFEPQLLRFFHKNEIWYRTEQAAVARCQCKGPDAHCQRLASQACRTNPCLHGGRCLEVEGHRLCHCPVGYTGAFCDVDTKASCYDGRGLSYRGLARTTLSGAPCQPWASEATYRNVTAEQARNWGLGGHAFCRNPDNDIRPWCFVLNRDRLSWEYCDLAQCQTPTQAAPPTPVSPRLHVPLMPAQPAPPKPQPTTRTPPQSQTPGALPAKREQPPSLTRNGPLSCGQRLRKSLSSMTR

SMILES | IC50 [µM]
Cc1cccc2c1NCCC2C(=O)n1nc(N)c2c1CN(S(=O)(=O)C1COC1)CC2 (centres unmarked) [Example 187, (3-amino-6-(oxetan-3-ylsulfonyl)-4,5,6,7-tetrahydro-pyrazolo[3,4-c]pyridin-1-yl)(8-methyl-1,2,3,4-tetrahydro-quinolin-4-yl)methanone] | 35
Cc1cc(F)cc2c1NCC[C@H]2C(=O)n1nc2c(c1N)COCC2 (single isomer, unassigned) [Example 192, (R*)-(3-amino-6,7-dihydropyrano[4,3-c]pyrazol-2(4H)-yl)(6-fluoro-8-methyl-1,2,3,4-tetrahydro-quinolin-4-yl)methanone] | 12.5
Nc1nn(C(=O)C2CCNc3ccc(F)cc32)c2c1CCNC2 (centres unmarked) [Example 148, (3-amino-4,5,6,7-tetrahydro-pyrazolo[3,4-c]pyridin-1-yl)(6-fluoro-1,2,3,4-tetrahydro-quinolin-4-yl)methanone] | 20
CCN1CCc2c(nn(C(=O)[C@@H]3CCNc4ccc(F)cc43)c2N)C1 (single isomer, unassigned) [Example 166, (R*)-(3-amino-6-ethyl-4,5,6,7-tetrahydro-pyrazolo[3,4-c]pyridin-2-yl)(6-fluoro-1,2,3,4-tetrahydro-quinolin-4-yl)methanone] | 10
Nc1nn(C(=O)C2CCNc3ccc(F)cc32)c2c1CCN(S(=O)(=O)CF)C2 (centres unmarked) [Example 141, (3-amino-6-(fluoromethyl-sulfonyl)-4,5,6,7-tetrahydro-pyrazolo(3,4-c]pyridin-1-yl)(6-fluoro-1,2,3,4-tetrahydro-quinolin-4-yl)methanone] | 31
Nc1c2c(nn1C(=O)[C@@H]1CCNc3c(Cl)cccc31)COCC2 (single isomer, unassigned) [Example 201, (R*)-(3-amino-4,5-dihydropyrano[3,4-c]pyrazol-2(7H)-yl)(8-chloro-1,2,3,4-tetrahydro-quinolin-4-yl)methanone] | 16
Cc1cccc2c1NCC[C@H]2C(=O)n1nc2c(c1N)CCN(S(=O)(=O)C1CCC1)C2 (single isomer, unassigned) [Example 183, (R*)-(3-amino-6-(cyclobutyl-sulfonyl)-4,5,6,7-tetrahydro-pyrazolo[3,4-c]pyridin-2-yl)(8-methyl-1,2,3,4-tetrahydro-quinolin-4-yl)methanone] | 35
CCN1CCc2c(N)nn(C(=O)C3CCNc4c(C)cc(F)cc43)c2C1 (centres unmarked) [Example 172, (3-amino-6-ethyl-4,5,6,7-tetrahydro-pyrazolo[3,4-c]pyridin-1-yl)(6-fluoro-8-methyl-1,2,3,4-tetrahydro-quinolin-4-yl)methanone] | 4.5
CC(C)(C)S(=O)(=O)N1CCc2c(N)nn(C(=O)C3CCNc4ccc(F)cc43)c2C1 (centres unmarked) [Example 139, (3-amino-6-(tert-butylsulfonyl)-4,5,6,7-tetrahydro-pyrazolo[3,4-c]pyridin-1-yl)(6-fluoro-1,2,3,4-tetrahydro-quinolin-4-yl)methanone] | 55
CC(C)CN1CCc2c(N)nn(C(=O)C3CCNc4ccc(F)cc43)c2C1 (centres unmarked) [Example 154, (3-amino-6-isobutyl-4,5,6,7-tetrahydro-pyrazolo[3,4-c]pyridin-1-yl)(6-fluoro-1,2,3,4-tetrahydro-quinolin-4-yl)methanone] | 18
CCN1CCc2c(N)nn(C(=O)C3CCNc4ccc(F)cc43)c2C1 (centres unmarked) [Example 164, (3-amino-6-ethyl-4,5,6,7-tetrahydro-pyrazolo[3,4-c]pyridin-1-yl)(6-fluoro-1,2,3,4-tetrahydro-quinolin-4-yl)methanone] | 12
Cc1cc(F)cc2c1NCC[C@@H]2C(=O)n1nc2c(c1N)CNCC2 (single isomer, unassigned) [Example 82, (S*)-(3-amino-4,5,6,7-tetrahydropyrazolo[4,3-c]pyridin-2-yl)(6-fluoro-8-methyl-1,2,3,4-tetrahydroquinolin-4-yl)methanone] | 0.07
Cc1cc2c(C(=O)n3nc4c(c3N)CN(C(=O)OC(C)(C)C)CC4)cccc2[nH]1 [Example 1, tert-butyl 3-amino-2-[(2-methyl-1H-indol-4-yl)carbonyl]-4,5,6,7-tetrahydro-2H-pyrazolo[4,3-c]pyridin-5-carboxylate] | 0.08
Cc1cc(F)cc2c1NCCC2C(=O)n1nc2c(c1N)CCOC2 (single isomer, unassigned) [Example 77, (R*)-(3-amino-4,5-dihydropyrano[3,4-c]pyrazol-2(7H)-yl)(6-fluoro-8-methyl-1,2,3,4-tetrahydroquinolin-4-yl)methanone] | 70
CS(=O)(=O)N1CCc2c(N)nn(C(=O)C3CCNc4ncccc43)c2C1 (centres unmarked) [Example 42, (3-amino-6-(methylsulfonyl)-4,5,6,7-tetrahydropyrazolo[3,4-c]pyridin-1-yl)(1,2,3,4-tetrahydro-1,8-naphthyridin-4-yl)methanone] | > 80
Cn1cc2c(c1)C(C(=O)n1nc(N)c3c1CN(S(C)(=O)=O)CC3)CCC2 (centres unmarked) [Example 27, (3-amino-6-(methylsulfonyl)-4,5,6,7-tetrahydropyrazolo[3,4-c]pyridin-1-yl)(2-methyl-4,5,6,7-tetrahydro-2H-isoindol-4-yl)methanone] | 75
Cc1cccc2c1NCCC2C(=O)n1nc2c(c1N)CCN(S(C)(=O)=O)C2 (single isomer, unassigned) [Example 36, (R*)-(3-amino-6-(methylsulfonyl)-4,5,6,7-tetrahydropyrazolo[3,4-c]pyridin-2-yl)(8-methyl-1,2,3,4-tetrahydroquinolin-4-yl)methanone] | 17
Cc1cccc2c1NCC[C@H]2C(=O)n1nc2c(c1N)CCN(CCO)C2 (single isomer, unassigned) [Example 205, (R*)-(3-amino-6-(2-hydroxyethyl)-4,5,6,7-tetrahydro-2H-pyrazolo[3,4-c]pyridin-2-yl)(8-methyl-1,2,3,4-tetrahydro-quinolin-4-yl)methanone] | > 25
Cc1cc2c(C(=O)n3nc(N)c4c3CN(C(=O)OC(C)(C)C)CC4)cccc2[nH]1 [Example 8, tert-butyl 3-amino-1-(2-methyl-1H-indole-4-carbonyl)-4,5-dihydro-1H-pyrazolo[3,4-c]pyridine-6(7H)-carboxylate] | 50
CCc1cc(C)c2c(c1)C(C(=O)n1nc(N)c3c1CN(S(C)(=O)=O)CC3)CCN2 (centres unmarked) [Example 56, (3-amino-6-(methylsulfonyl)-4,5,6,7-tetrahydropyrazolo[3,4-c]pyridin-1-yl)(6-ethyl-8-methyl-1,2,3,4-tetrahydroquinolin-4-yl)methanone] | > 65
CS(=O)(=O)N1CCc2c(N)nn(C(=O)C3CCNc4c3cccc4C(F)(F)F)c2C1 (centres unmarked) [Example 68, (3-amino-6-(methylsulfonyl)-4,5,6,7-tetrahydropyrazolo[3,4-c]pyridin-1-yl)(8-(trifluoromethyl)-1,2,3,4-tetrahydroquinolin-4-yl)methanone] | > 90
CC(=O)Nc1ccc2c(c1)C(C(=O)n1nc(N)c3c1CN(S(C)(=O)=O)CC3)CCN2 (centres unmarked) [Example 48, N-(4-(3-amino-6-(methylsulfonyl)-4,5,6,7-tetrahydro-1H-pyrazolo[3,4-c]pyridine-1-carbonyl)-1,2,3,4-tetrahydroquinolin-6-yl)acetamide] | > 30
CCc1ccc2c(c1)C(C(=O)n1nc(N)c3c1CN(S(C)(=O)=O)CC3)CCN2 (centres unmarked) [Example 31, (3-amino-6-(methylsulfonyl)-4,5,6,7-tetrahydropyrazolo[3,4-c]pyridin-1-yl)(6-ethyl-1,2,3,4-tetrahydroquinolin-4-yl)methanone] | 40
Cc1cc2c(C(=O)n3nc4c(c3N)CCN(Cc3ccccc3)C4)cccc2[nH]1 [Example 10, (3-amino-6-benzyl-4,5,6,7-tetrahydropyrazolo[3,4-c]pyridin-2-yl)(2-methyl-1H-indol-4-yl)methanone] | 0.03
CC(=O)Nc1ccc2c(c1)C(C(=O)n1nc3c(c1N)CCN(S(C)(=O)=O)C3)CCN2 (centres unmarked) [Example 47, N-(4-(3-amino-6-(methylsulfonyl)-4,5,6,7-tetrahydro-2H-pyrazolo[3,4-c]pyridine-2-carbonyl)-1,2,3,4-tetrahydroquinolin-6-yl)acetamide] | 8.5
CS(=O)(=O)N1CCc2c(N)nn(C(=O)C3CCCc4[nH]c(Cl)cc43)c2C1 (centres unmarked) [Example 133, (3-amino-6-(methylsulfonyl)-4,5,6,7-tetrahydro-pyrazolo[3,4-c]pyridin-1-yl)(2-chloro-4,5,6,7-tetrahydro-1H-indol-4-yl)methanone] | 45
Nc1nn(C(=O)C2CCNc3ccc(F)cc32)c2c1CCN(S(=O)(=O)c1cccnc1)C2 (centres unmarked) [Example 158, (3-amino-6-(pyridin-3-ylsulfonyl)-4,5,6,7-tetrahydro-pyrazolo[3,4-c]pyridin-1-yl)(6-fluoro-1,2,3,4-tetrahydro-quinolin-4-yl)methanone] | 37
CS(=O)(=O)N1CCc2c(nn(C(=O)C3CCNc4ccc(F)cc43)c2N)C1 (single isomer, unassigned) [Example 19, (R*)-(3-amino-6-(methylsulfonyl)-4,5,6,7-tetrahydropyrazolo[3,4-c]pyridin-2-yl)(6-fluoro-1,2,3,4-tetrahydroquinolin-4-yl)methanone] | 11
Nc1nn(C(=O)C2CCNc3c(Cl)cccc32)c2c1CCNC2 (centres unmarked) [Example 71, (3-amino-4,5,6,7-tetrahydropyrazolo[3,4-c]pyridin-1-yl)(8-chloro-1,2,3,4-tetrahydroquinolin-4-yl)methanone] | 5

Reference: US11312723B2, “Pyranopyrazole and pyrazolopyridine immunomodulators for treatment of autoimmune diseases” (The Rockefeller University, priority 2017, dated 2022)
